Structures can show the parent of a compound that is named as a salt.
Tested on: whole blood
Assay: Transcriptional profiling on Affymetrix GeneChips, single dose, naïve mice: whole blood
Format: in vivo, C57BL/6 mice
Conditions: for Number of differentially expressed genes identified: Whole blood: Naïve, Single Dose
Description: Treated mice were sacrificed at 2, 7, or 12 hours. Tissues (liver, spleen, kidney, jejunum, cortex, hippocampus, striatum and whole blood) were collected and analyzed by transcriptional profiling on mouse Affymetrix GeneChips. […] While the experiments were performed in mice, the human homolog of the identified murine gene transcript is included in the tables. Additional genes that were identified in the study are provided in APPENDIX A, filed herewith on even date, the contents of which are herein incorporated by reference in their entirety. Additional studies are described in the Examples, and genes identified in the studies are provided in […], and APPENDIX E filed herewith on even date, the contents of each of which are herein incorporated by reference in their entirety. […] Tissues (liver, spleen, kidney, jejunum, cortex, hippocampus, striatum and whole blood) were collected and analyzed by transcriptional profiling on mouse Affymetrix GeneChips. […] Animals were exposed to CO2 and whole blood collected via cardiac puncture. Two 100 μl aliquots of whole blood were collected in 1.5 mL microcentrifuge tubes and snap frozen in liquid nitrogen. Peripheral (liver, spleen, kidney and jejunum) and CNS brain (cerebellum, hippocampus, striatum and cortex) tissues were harvested and snap frozen in liquid nitrogen, with special care taken to collect tissues of similar size and from the same location. All samples were stored at -80° C. until RNA extraction was conducted. 50 ul of snap frozen mouse blood was re-suspended in lysis buffer with proteinase K and arrayed into deep-well plates for automated RNA extraction. RNA extractions were completed on […] (Beckman Coulter, Indianapolis, Ind.) using Agencourt RNAdvance Blood kit (Part number A35604) according to the manufacturer's specifications. RNA integrity was assessed using the HT RNA reagent kit (Part number 760410, Caliper Life Sciences, Hopkinton, Mass.) using a LabChip GX (PerkinElmer, Waltham, Mass.). RNA samples with a RQS score of >8.0 were considered high quality for downstream microarray processing. […] Two micrograms of biotin labeled […] probe were hybridized to Affymetrix GeneChip Affymetrix HT_MG-430_PM plate arrays with modified conditions as described in […] et al. Washing and staining of the hybridized arrays were completed as described in the GeneChip Expression analysis technical manual for HT plate arrays using the Genechip® Array Station (Affymetrix, Santa Clara, Calif.) with modifications as described in […] et al. The processed GeneChip® plate arrays were scanned using GeneTitan scanner (Affymetrix, Santa Clara, Calif.). Affymetrix scans were subject to quality control (QC) measures. These tests included a visual inspection of the distribution of raw signal intensities and an assessment of RNA degradation, relative log expression (RLE), and normalized unsealed standard error (NUSE). All sample scans that passed these QC metrics were included in the analysis. All CEL files were subjected to GC-content-based Robust Multi-array Average (GCRMA) normalization (version 2.20.0) (Irizarry R A, et al. Nucleic Acids Res 2003; 31:e15; Li C, et al. Genome Biol 2001; 2:[…]0032). […] Stat Appl Genet Mol Biol 2004; 3:Article3). […] Springer Science+Business Media 2005).

[1] = 100 mpk, vs Vehicle, 2 h after last dosing
[2] = 100 mpk, vs Vehicle, 7 h after last dosing
[3] = 100 mpk, vs Vehicle, 12 h after last dosing
[4] = whole blood, 100DMF-vs-Veh, 2 h
[5] = whole blood, 100DMF-vs-Veh, 12 h
[6] = whole blood, 100MMF-vs-Veh, 12 h

COC(=O)/C=C/C(=O)OC [DMF, dimethyl fumarate]
Number of genes, DMF Only / MMF Only (Blood): 6 | Cpsf2 (1420937_PM_at) differential expression (Blood, 2 hr): −1.65 | Gzma (1417898_PM_a_at) differential expression (Blood, 12 hr): 1.92 | Klrb1b (1445399_PM_at) differential expression (Blood, 12 hr): 1.65 | Klrc1 (1425005_PM_at) differential expression (Blood, 12 hr): 1.85 | Klre1 (1458642_PM_at) differential expression (Blood, 12 hr): 1.85 | Ncr1 (1422089_PM_at) differential expression (Blood, 12 hr): 1.86 | Number of differentially expressed genes identified: Whole blood (100 mpk DMF-vs-100 mpk MMF, 2 h after last dosing): 0 | Number of differentially expressed genes identified: Whole blood (100 mpk DMF-vs-100 mpk MMF, 7 h after last dosing): 1 | Number of differentially expressed genes identified: Whole blood (100 mpk DMF-vs-100 mpk MMF, 12 h after last dosing): 0 | Number of differentially expressed genes identified: Whole blood [1]: 2 | Number of differentially expressed genes identified: Whole blood [2]: 0 | Number of differentially expressed genes identified: Whole blood [3]: 5 | differentially expressed genes (whole blood, 100DMF-vs-100MMF, 2 h): None | FC Lman1 (1444037_PM_at) (whole blood, 100DMF-vs-100MMF, 7 h): 1.63 | differentially expressed genes (whole blood, 100DMF-vs-100MMF, 12 h): None | FC Cpsf2 (1420937_PM_at) [4]: −1.65 | FC probe 1441373_PM_at [4]: −1.70 | FC Gzma (1417898_PM_a_at) [5]: 1.92 | FC Klrb1b (1445399_PM_at) [5]: 1.65 | FC Klrc1 (1425005_PM_at) [5]: 1.85 | FC Klre1 (1458642_PM_at) [5]: 1.85 | FC Ncr1 (1422089_PM_at) [5]: 1.86 | differentially expressed genes (whole blood, 100DMF-vs-Veh, 7 h): None

COC(=O)/C=C/C(=O)O [MMF, monomethyl fumarate]
Number of genes, DMF Only / MMF Only (Blood): 2 | Bcl3 (1418133_PM_at) differential expression (Blood, 2 hr): −1.23 | Sdc1 (1415943_PM_at) differential expression (Blood, 12 hr): −1.96 | Number of differentially expressed genes identified: Whole blood [1]: 1 | Number of differentially expressed genes identified: Whole blood [2]: 0 | Number of differentially expressed genes identified: Whole blood [3]: 2 | FC Bcl3 (1418133_PM_at) (whole blood, 100MMF-vs-Veh, 2 h): −1.67 | FC 0710007G10Rik /// Tmem175 (1435109_PM_at) [6]: −1.52 | FC Sdc1 (1415943_PM_at) [6]: −1.96 | Bcl3 mRNA fold change vs vehicle (whole blood, 2 hr after single 100 mg/kg oral dose): −1.23 | Sdc1 mRNA fold change vs vehicle (whole blood, 12 hr after single 100 mg/kg oral dose): −1.96
